From US11000033B2, “Ketone or oxime compound, and herbicide” (NISSAN CHEMICAL CORPORATION, priority 2014, dated 2021)

How the values were obtained:
Assay type in all cases: in vivo
[1] = tested on: Echinochloa oryzacola Vasing.; experiment: Test Example 1: herbicidal activity, application before weed generation in submerged conditions (symbol A); settings: application herbicide amount 320 g/ha
How it was run: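 0–5 visual score, 3 wk post-application. Submerged pots, alluvial soil, water 4 cm; seeds sown mixed, rice at 2.5 leaves transplanted. Emulsion diluted to predetermined dose, applied to water surface at sowing. 25–30 °C greenhouse.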

[2] = tested on: Scirpus juncoides; experiment: Test Example 2: herbicidal activity, application during weed generation in submerged conditions (symbol B); settings: Table 23; application herbicide amount 320 g/ha; grade 0-5 by criteria of Test Example 1
How it was run: (§1)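 Seeds sown in flooded alluvial soil (4 cm water) were grown in a 25-30° C greenhouse. At the one- to two-leaf stage, diluted emulsion of compound was applied to the water surface at a predetermined rate. Effect was scored 3 weeks later.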

[3] = tested on: Monochoria vaginalis; experiment: Test Example 2: herbicidal activity, application during weed generation in submerged conditions (symbol C); settings: Table 23; application herbicide amount 320 g/ha; grade 0-5 by criteria of Test Example 1
How it was run: as §1

[4] = tested on: Leptochloa chinensis; experiment: Test Example 3: herbicidal effect by foliage application, Wagner pot (symbol D); settings: application herbicide amount 320 g/ha
How it was run: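 Plants sown in submerged alluvial soil (water depth 0.1–0.5 cm) in a 25–30 °C greenhouse and grown 14 days. An emulsion of the compound diluted in water to a set herbicide amount was sprayed uniformly on foliage. Effect on each plant scored 3 weeks after application.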

[5] = tested on: Setaria viridis; experiment: Test Example 4: herbicidal effect by soil treatment (symbol G); settings: application herbicide amount 320 g/ha
How it was run: (§2)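 Seeds were sown in sterilized diluvial soil, covered with about 1.5 cm of soil, and the soil surface was sprayed with a water-diluted emulsion of the compound at a predetermined rate. Plants grew in a greenhouse at 25° C. to 30° C.; effects were scored visually 3 weeks after application.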

[6] = tested on: Veronica persica; experiment: Test Example 4: herbicidal effect by soil treatment (symbol R); settings: application herbicide amount 320 g/ha
How it was run: as §2

[7] = tested on: beet; experiment: Test Example 4: effect on crop by soil treatment (symbol f); settings: application herbicide amount 320 g/ha
How it was run: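 Greenhouse culture at 25° C. to 30° C. followed sowing of seed in spots on sterilized diluvial soil with a soil cover close to 1.5 cm thick.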

[8] = tested on: Digitaria ciliaris; experiment: Test Example 5: herbicidal effect by foliage application, plastic box (symbol F); settings: 320 g/ha, 3 weeks after application
How it was run: (§3)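 Seeds were sown in sterilized diluvial soil, covered with about 1.5 cm of soil and grown 14 days in a greenhouse at 25° C. to 30° C. An emulsifiable formulation diluted in water to a set rate was sprayed over foliage, and injury was scored 3 weeks later.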

[9] = tested on: Avena fatua; experiment: Test Example 5: herbicidal effect by foliage application, plastic box (symbol I); settings: 320 g/ha, 3 weeks after application
How it was run: as §3

[10] = tested on: Alopecurus myosuroides; experiment: Test Example 5: herbicidal effect by foliage application, plastic box (symbol J); settings: 320 g/ha, 3 weeks after application
How it was run: as §3

[11] = tested on: beet; experiment: Test Example 5: effect on crop by foliage application, plastic box (symbol f); settings: 320 g/ha, 3 weeks after application
How it was run: (§4)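 Crop and weed seeds sown in spots in sterilized diluvial soil in plastic boxes and covered with about 1.5 cm soil. Plants raised in a greenhouse at 25° C. to 30° C. for foliar application.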

[12] = tested on: rapeseed; experiment: Test Example 5: effect on crop by foliage application, plastic box (symbol g); settings: 320 g/ha, 3 weeks after application
How it was run: as §4

SMILES | Herbicidal effect grade, A: Echinochloa oryzacola Vasing. [1] | Herbicidal effect grade, B: Scirpus juncoides [2] | Herbicidal effect grade, C: Monochoria vaginalis [3] | herbicidal effect on D (Leptochloa chinensis), grade 0-5 [4] | G (Setaria viridis) herbicidal effect grade [5] | R (Veronica persica) herbicidal effect grade [6] | f (beet) effect on crop grade [7] | F: Digitaria ciliaris, herbicidal effect grade [8] | I: Avena fatua, herbicidal effect grade [9] | J: Alopecurus myosuroides, herbicidal effect grade [10] | f: beet, effect on crop grade [11] | g: rapeseed, effect on crop grade [12]
CC(CC1CC(O)=C(c2c(C)cc(C)cc2C)C1=O)=NOC(C)C (stereo not drawn) [1-052] | 5 (Herbicidal ratio of 90% or more (almost completely withered)) | 2 (Herbicidal ratio of 20% or higher and lower than 40%) | 0 (Herbicidal ratio of 5% or lower (almost no effect)) | 5 (Herbicidal ratio of 90% or more (almost completely withered)) | 5 (Herbicidal ratio of 90% or more (almost completely withered)) | 0 (Herbicidal ratio of 5% or lower (almost no effect)) | 0 (Herbicidal ratio of 5% or lower (almost no effect)) | 5 (Herbicidal ratio of 90% or more (almost completely withered)) | 5 (Herbicidal ratio of 90% or more (almost completely withered)) | 5 (Herbicidal ratio of 90% or more (almost completely withered)) | 0 (Herbicidal ratio of 5% or lower (almost no effect)) | 4 (Herbicidal ratio of 70% or higher and lower than 90%)
CC(CC1CC(O)=C(c2c(C)cc(C)cc2C)C1=O)=NOC(C)(C)C (stereo not drawn) [1-053] | 5 (Herbicidal ratio of 90% or more (almost completely withered)) | 0 (Herbicidal ratio of 5% or lower (almost no effect)) | 0 (Herbicidal ratio of 5% or lower (almost no effect)) | 5 (Herbicidal ratio of 90% or more (almost completely withered)) | 4 (Herbicidal ratio of 70% or higher and lower than 90%) | 0 (Herbicidal ratio of 5% or lower (almost no effect)) | 0 (Herbicidal ratio of 5% or lower (almost no effect)) | 3 (Herbicidal ratio of 40% or higher and lower than 70%) | 2 (Herbicidal ratio of 20% or higher and lower than 40%) | 4 (Herbicidal ratio of 70% or higher and lower than 90%) | 0 (Herbicidal ratio of 5% or lower (almost no effect)) | 4 (Herbicidal ratio of 70% or higher and lower than 90%)
CCCCCCCON=C(C)CC1CC(O)=C(c2c(C)cc(C)cc2C)C1=O (stereo not drawn) [1-054] | 5 (Herbicidal ratio of 90% or more (almost completely withered)) | 0 (Herbicidal ratio of 5% or lower (almost no effect)) | 0 (Herbicidal ratio of 5% or lower (almost no effect)) | 3 (Herbicidal ratio of 40% or higher and lower than 70%) | 5 (Herbicidal ratio of 90% or more (almost completely withered)) | 0 (Herbicidal ratio of 5% or lower (almost no effect)) | 0 (Herbicidal ratio of 5% or lower (almost no effect)) | 2 (Herbicidal ratio of 20% or higher and lower than 40%) | 3 (Herbicidal ratio of 40% or higher and lower than 70%) | 4 (Herbicidal ratio of 70% or higher and lower than 90%) | 0 (Herbicidal ratio of 5% or lower (almost no effect)) | 3 (Herbicidal ratio of 40% or higher and lower than 70%)
CC(CC1CC(O)=C(c2c(C)cc(C)cc2C)C1=O)=NOCC[Si](C)(C)C (stereo not drawn) [1-055] | 5 (Herbicidal ratio of 90% or more (almost completely withered)) | 0 (Herbicidal ratio of 5% or lower (almost no effect)) | 0 (Herbicidal ratio of 5% or lower (almost no effect)) | 5 (Herbicidal ratio of 90% or more (almost completely withered)) | 4 (Herbicidal ratio of 70% or higher and lower than 90%) | 0 (Herbicidal ratio of 5% or lower (almost no effect)) | 0 (Herbicidal ratio of 5% or lower (almost no effect)) | 3 (Herbicidal ratio of 40% or higher and lower than 70%) | 4 (Herbicidal ratio of 70% or higher and lower than 90%) | 4 (Herbicidal ratio of 70% or higher and lower than 90%) | 0 (Herbicidal ratio of 5% or lower (almost no effect)) | 3 (Herbicidal ratio of 40% or higher and lower than 70%)
CC(CC1CC(O)=C(c2c(C)cc(C)cc2C)C1=O)=NOCC=CCl (stereo not drawn) [1-056] | 5 (Herbicidal ratio of 90% or more (almost completely withered)) | 5 (Herbicidal ratio of 90% or more (almost completely withered)) | 4 (Herbicidal ratio of 70% or higher and lower than 90%) | 5 (Herbicidal ratio of 90% or more (almost completely withered)) | 5 (Herbicidal ratio of 90% or more (almost completely withered)) | 0 (Herbicidal ratio of 5% or lower (almost no effect)) | 0 (Herbicidal ratio of 5% or lower (almost no effect)) | 5 (Herbicidal ratio of 90% or more (almost completely withered)) | 5 (Herbicidal ratio of 90% or more (almost completely withered)) | 5 (Herbicidal ratio of 90% or more (almost completely withered)) | 0 (Herbicidal ratio of 5% or lower (almost no effect)) | 4 (Herbicidal ratio of 70% or higher and lower than 90%)
CC(CC1CC(O)=C(c2c(C)cc(C)cc2C)C1=O)=NOc1ccccc1 (stereo not drawn) [1-057] | 5 (Herbicidal ratio of 90% or more (almost completely withered)) | 0 (Herbicidal ratio of 5% or lower (almost no effect)) | 0 (Herbicidal ratio of 5% or lower (almost no effect)) | 3 (Herbicidal ratio of 40% or higher and lower than 70%) | 4 (Herbicidal ratio of 70% or higher and lower than 90%) | 0 (Herbicidal ratio of 5% or lower (almost no effect)) | 0 (Herbicidal ratio of 5% or lower (almost no effect)) | 3 (Herbicidal ratio of 40% or higher and lower than 70%) | 2 (Herbicidal ratio of 20% or higher and lower than 40%) | 3 (Herbicidal ratio of 40% or higher and lower than 70%) | 1 (Herbicidal ratio of 5% or higher and lower than 20%) | 4 (Herbicidal ratio of 70% or higher and lower than 90%)
